# System: adult patients with uncontrolled gout
# Assay: Serum uric acid (sUA) levels and sUA responder rate, open-label study of pegloticase with MTX (MIRROR OL)
# Format: in vivo, human
# Description: The primary objective is to estimate the response rate during Month 6 (Weeks 20, 22, and 24), as measured by the sustained normalization of serum uric acid (SUA) to <6 mg/dL for at least 80% of the time during Month 6 in subjects receiving KXX with MTX.
# The primary efficacy outcome endpoint is the sustained normalization of SUA to <6 mg/dL for at least 80% of the time during month 6 (weeks 20, 22, and 24) in subjects receiving KXX with MTX. […] Participants who achieve this endpoint were classified as “responders.” Serum uric acid (SUA) responders may also be defined as participants achieving and maintaining SUA <6 mg/dL for at least 80% of the time during Month 6 (Weeks 20, 22, and 24).
# Blood samples may be collected prior to each pegloticase infusion for measurement of SUA levels using the Beckman Coulter AU System Uric Acid procedure. Participants were declared “non-responders” if there were SUA measures >6 mg/dL at 2 consecutive study visits beginning with the week 2 visit. […] This assumption and subsequent discontinuation of pegloticase was consistent with the protocol of large phase III randomized controlled trials and the product label. A formal stopping rule was 2 occasions of SUA levels of greater than 6 mg/dL.
# Clinical Chemistry—Blood samples were collected prior to each pegloticase infusion for measurement of SUA levels (primary efficacy parameter) using the Beckman Coulter AU System Uric Acid procedure. In this procedure uric acid is converted to hydrogen peroxide. Hydrogen peroxide reacts with reagent to produce a chromophore which is read bichromatically at 660/800 nm. The amount of dye formed is proportional to the uric acid concentration in the sample.
# Serum samples for measurement of SUA levels were collected at the Screening Visit, the Week −4 Visit (prior to the first dose of MTX), and the Week −2 Visit during the MTX Run-in Period; within 48 hours prior to each pegloticase infusion and after the end of each pegloticase infusion prior to discharge from the site during the Pegloticase+IMM Period; at the non-infusion Week 52/End of Study/Early Termination Visits and at the Post Treatment 3 and 6 Month Follow-up Visits. Additional serum samples for SUA levels were collected at optional non-infusion (Frequent Sampling) Visits at Weeks 1 and 7. […] Subjects with SUA level >6 mg/dL at 2 consecutive visits beginning at Week 2 visit discontinued treatment, completed the End of Pegloticase Infusion Visit procedures within 2 weeks and continued the subject visits according to the protocol (without treatment).
# Efficacy analyses were performed using the modified intention-to-treat (mITT) population, defined as all enrolled subjects who received ≥1 dose of pegloticase. The proportion of Month 6 responders was summarized, along with a 95% confidence interval for the proportion. The proportion of Month 3 and overall (Months 3 and 6 combined) responders was analyzed similarly.
# A subject was declared a non-responder if the subject had SUA level >6 mg/dL at 2 consecutive study visits beginning with the Week 2 Visit. In addition, a subject who withdraws from study treatment for any reason after the first dose of pegloticase in the KXX+MTX Period and prior to Month 6 (for the primary endpoint) or Month 3 (for the secondary endpoint) was considered a non-responder if SUA values were not collected at the planned time points.
# Patients were administered oral MTX (15 mg/week) and folate (1 mg/day) 4 weeks prior to the first pegloticase infusion (Day 1) and throughout the pegloticase treatment period. Blood was drawn prior to each infusion to measure sUA level, monitor clinical parameters, and examine for ADA development. All patients followed typical IR prophylaxis protocols (fexofenadine one day before and the morning of each infusion and acetaminophen and IV corticosteroid the morning of each infusion).
# [1] = Day 1 - Post-Infusion, mITT Population
# [2] = Early Termination Visit, mITT Population
# [3] = End of Pegloticase Infusions Visit, mITT Population
# [4] = Month 6 sUA Non-Responders, Day 1-Post-Infusion, n=3
# [5] = Month 6 sUA Non-Responders, Early Termination Visit, n=3
# [6] = Month 6 sUA Non-Responders, Week 1, n=2
# [7] = Month 6 sUA Non-Responders, Week 2-Post-Infusion, n=3
# [8] = Month 6 sUA Non-Responders, Week 2-Pre-Infusion, n=3
# [9] = Month 6 sUA Non-Responders, Week 4-Pre-Infusion, n=3
# [10] = Month 6 sUA Non-Responders, Week 8-Post-Infusion, n=1
# [11] = Month 6 sUA Non-Responders, Week 8-Pre-Infusion, n=1
# [12] = Month 6 sUA Non-Responders, Week 10-Pre-Infusion, n=1
# [13] = Month 6 sUA Responders, Day 1-Post-Infusion, n=8
substance,measurement,setting,value
pegloticase,"Serum Uric Acid, Change from Baseline, Mean (SD)",[1],−7.29 (2.254) mg/dL
same,"Serum Uric Acid, Change from Baseline, Median",[1],-7.30 mg/dL
same,"Serum Uric Acid, Observed, Mean (SD)",[1],1.18 (1.417) mg/dL
same,"Serum Uric Acid, Observed, Median",[1],0.30 mg/dL
same,"sUA <6 mg/dL, n (%)",[1],11 (100%)
same,"Serum Uric Acid, Change from Baseline, Mean (SD)",[2],−0.57 (0.635) mg/dL
same,"Serum Uric Acid, Change from Baseline, Median",[2],-0.20 mg/dL
same,"Serum Uric Acid, Observed, Mean (SD)",[2],8.17 (0.058) mg/dL
same,"Serum Uric Acid, Observed, Median",[2],8.20 mg/dL
same,"sUA <6 mg/dL, n (%)","Early Termination Visit, mITT Population, number of subjects (% not given)",0
same,"Serum Uric Acid, Change from Baseline, Mean (SD)",[3],−8.50 (1.556) mg/dL
same,"Serum Uric Acid, Change from Baseline, Median",[3],-8.50 mg/dL
same,"Serum Uric Acid, Observed, Mean (SD)",[3],0.30 (0.000) mg/dL
same,"Serum Uric Acid, Observed, Median",[3],0.30 mg/dL
same,"sUA <6 mg/dL, n (%)",[3],2 (100%)
same,"Serum Uric Acid, Change from Baseline, Mean (SD)",[4],−6.60 (2.848) mg/dL
same,"Serum Uric Acid, Change from Baseline, Median",[4],-7.20 mg/dL
same,"Serum Uric Acid, Observed, Mean (SD)",[4],2.13 (2.438) mg/dL
same,"Serum Uric Acid, Observed, Median",[4],1.20 mg/dL
same,"sUA <6 mg/dL, n (%)",[4],3 (100%)
same,"Serum Uric Acid, Change from Baseline, Mean (SD)",[5],−0.57 (0.635) mg/dL
same,"Serum Uric Acid, Change from Baseline, Median",[5],-0.20 mg/dL
same,"Serum Uric Acid, Observed, Mean (SD)",[5],8.17 (0.058) mg/dL
same,"Serum Uric Acid, Observed, Median",[5],8.20 mg/dL
same,"sUA <6 mg/dL, n (%)",[5],0%
same,"Serum Uric Acid, Change from Baseline, Mean (SD)",[6],−8.10 (0.000) mg/dL
same,"Serum Uric Acid, Change from Baseline, Median",[6],-8.10 mg/dL
same,"Serum Uric Acid, Observed, Mean (SD)",[6],0.30 (0.000) mg/dL
same,"Serum Uric Acid, Observed, Median",[6],0.30 mg/dL
same,"sUA <6 mg/dL, n (%)",[6],2 (100%)
same,"Serum Uric Acid, Change from Baseline, Mean (SD)",[7],−8.43 (0.577) mg/dL
same,"Serum Uric Acid, Change from Baseline, Median",[7],-8.10 mg/dL
same,"Serum Uric Acid, Observed, Mean (SD)",[7],0.30 (0.000) mg/dL
same,"Serum Uric Acid, Observed, Median",[7],0.30 mg/dL
same,"sUA <6 mg/dL, n (%)",[7],3 (100%)
same,"Serum Uric Acid, Change from Baseline, Mean (SD)",[8],−5.17 (4.225) mg/dL
same,"Serum Uric Acid, Change from Baseline, Median",[8],-5.70 mg/dL
same,"Serum Uric Acid, Observed, Mean (SD)",[8],3.57 (3.775) mg/dL
same,"Serum Uric Acid, Observed, Median",[8],2.70 mg/dL
same,"sUA <6 mg/dL, n (%)",[8],2 (66.7%)
same,"Serum Uric Acid, Change from Baseline, Mean (SD)",[9],−3.70 (4.744) mg/dL
same,"Serum Uric Acid, Change from Baseline, Median",[9],-1.80 mg/dL
same,"Serum Uric Acid, Observed, Mean (SD)",[9],5.03 (4.177) mg/dL
same,"Serum Uric Acid, Observed, Median",[9],6.60 mg/dL
same,"Serum Uric Acid, Change from Baseline, Mean (SD)",[10],−9.10 (NE) mg/dL
same,"Serum Uric Acid, Change from Baseline, Median",[10],-9.10 mg/dL
same,"Serum Uric Acid, Observed, Mean (SD)",[10],0.30 (NE) mg/dL
same,"Serum Uric Acid, Observed, Median",[10],0.30 mg/dL
same,"sUA <6 mg/dL, n (%)",[10],1 (100%)
same,"Serum Uric Acid, Change from Baseline, Mean (SD)",[11],−0.50 (NE) mg/dL
same,"Serum Uric Acid, Change from Baseline, Median",[11],-0.50 mg/dL
same,"Serum Uric Acid, Observed, Mean (SD)",[11],8.90 (NE) mg/dL
same,"Serum Uric Acid, Observed, Median",[11],8.90 mg/dL
same,"sUA <6 mg/dL, n (%)",[11],0%
same,"Serum Uric Acid, Change from Baseline, Mean (SD)",[12],−1.30 (NE) mg/dL
same,"Serum Uric Acid, Change from Baseline, Median",[12],-1.30 mg/dL
same,"Serum Uric Acid, Observed, Mean (SD)",[12],8.10 (NE) mg/dL
same,"Serum Uric Acid, Observed, Median",[12],8.10 mg/dL
same,"sUA <6 mg/dL, n (%)",[12],0%
same,"Serum Uric Acid, Change from Baseline, Mean (SD)",[13],−7.55 (2.158) mg/dL
same,"Serum Uric Acid, Change from Baseline, Median",[13],-7.50 mg/dL
same,"Serum Uric Acid, Observed, Mean (SD)",[13],0.83 (0.798) mg/dL

# From US20220409620A1, “REDUCING IMMUNOGENICITY TO PEGLOTICASE” (Horizon Pharma Rheumatology LLC, priority 2016, published 2022)
